# Assay results from patent US6723702B2, “Use of relaxin treat diseases related to vasoconstriction” (RAS Medical, Inc., priority 2000, dated 2004).
# Like-named read-outs stand apart in the source and are kept apart here.
# Key:
# [1] = test system: hypoxia-exposed and room-air Sprague-Dawley rats; type: in vivo, rat; conditions: for mean RVP compared to the veh-hyp group: hypoxia 10 days (FIG. 7)
# Experimental: Outbred 6-week-old Sprague-Dawley rats, 200-220 g body weight, were obtained from Hilltop Laboratories, Scottdale, Pa. Recombinant human relaxin (rhRlx) (5.0 mg/ml in 20 mM sodium acetate, pH5.0) and vehicle (20 mM acetate, pH5.0) were provided by Connetics Corporation (Palo Alto, Calif.). Miniosmotic pumps were purchased from Alza Corporation (Model 2002, Alza Corp., Palo Alto, Calif.).
# Mini osmotic pumps were filled to deliver rhRlx at […], or vehicle alone. Osmotic pumps were inserted subcutaneously in rats under a combination of ketamine and xylazine anaesthesia. The area around the back of the neck was shaved, cleaned with alcohol, and a small incision made for pump insertion. Incision was closed with surgical staples. After the animals were fully conscious they were randomly assigned to either hypoxic exposure or room air. Rats were subjected to either air or hypoxia, as described below. There were three groups of rats subjected to air: vehicle-treated (veh-air), 0.05 mg/kg/day rhRlx (low rhRlx-air), and 0.24 mg/kg/day rhRlx (hi rhRlx-air). There were three groups subjected to hypoxia: vehicle (veh-hyp), 0.05 mg/kg/day rhRlx (low rhRlx-hyp), and 0.24 mg/kg/day rhRlx (hi rhRlx-hyp).
# Rats were exposed to hypoxia (10% O2, 90% N2) at ambient pressure (Kerr et al., 1987) for 10 days, control groups were exposed to room air in the same room. Hypoxic animals were fed standard rat chow and water. Age-matched control groups were weight-matched by feeding the amount of food consumed by the rats in the hypoxic groups. At the end of the test period, mean right ventricular pressure (RVP) was measured in rats anaesthetized with an intraperitoneal injection of 50 mg/kg pentobarbital sodium. The portal vein was then cut for hematocrit measurement (Hct) and blood sampling, and the ratio of the right ventricle to left ventricle plus septum measured [RV/(LV+S)] (Kerr et al., 1987). To determine the effect of acute administration of rhRlx on pulmonary artery pressure, four 10-day hypoxic rats were anaesthetized, as previously described, and RVP monitored for 1 hr following administration of a bolus dose of 2 μg rhRlx in 0.2 ml total volume, followed by an infusion of 2 μg rhRlx in 0.2 ml, given over 10 min.
# The pulmonary artery trunk, right and left extrapulmonary branches were removed en bloc, cleaned of surrounding tissue, and weighed. The left lung was and excised and the entire hilar artery dissected from parenchyma and weighed (Tozzi et al. (1994) Am. J. Respir. Crit. Care Med. 149:1316-1326). Segments were hydrolyzed, and total hydroxyproline and protein determined (Poiani et al. (1990) Circ. Res. 66:968-978). Approximately 3 cc of whole blood was centrifuged, serum aspirated, and sample frozen at −20° C. for determination of rRlx levels by ELISA assay.
# [2] = test system: female Swiss Webster mice; assay: Matrigel assay of angiogenesis; type: in vivo, mouse; conditions: 100 ng/ml in Matrigel, s.c., three separate studies, vs vehicle
# Experimental: Animals were purchased from Harlan Sprague Dawley (Indianapolis, Ind.) and were housed according to NIH guidelines. Protocols were in compliance with institutional guidelines. Matrigel (Collaborative Biomedical, Bedford, Mass.) was mixed with relaxin to a final concentration of 100 ng/ml, or mixed with the identical volume of citrate buffer, on ice. […] was injected subcutaneously into the flank of female Swiss Webster mice. At 11 days, the Matrigel plugs were harvested, fixed, and stained with H & E (hematoxylin and eosin) for assessment of new blood vessel ingrowth. Vessel growth was scored on a 0-5 scale: 0=no infiltration; 1=minor infiltration; 2 =3-5 cell layers infiltrating only margins of the plug; 3=5-10 cell layers infiltrating margins with some areas of deeper infiltration; <25% of plug infiltrated; 4=Many areas of deep cellular infiltration; 25-50% of plug infiltrated; 5=50-100% of plug infiltrated. Endothelial cells preferentially migrate into the basement membrane matrix.
# The ability of relaxin to induce new blood vessel growth in vivo was tested in the murine Matrigel system for assessing angiogenesis. Passaniti et al. (1992) Lab. Invest. 67:519-528. […] At 10 days, Matrigel plugs were harvested, processed for histology, and H & E sections scored for vessel ingrowth in blinded fashion. […]
# [3] = test system: bFGF protein expression in human cardiac cells; assay: Immunocytochemistry of human cardiac cell cultures; type: cell-based; conditions: 10 and 100 ng/ml for 24 hours
# Experimental: Human cardiac cell cultures untreated or treated for 24 hr with 1, 10, and 100 ng/ml of relaxin were analyzed for VEGF and bFGF protein expression by immunocytochemistry. Human cardiac cells were seeded in two chamber slides at 150,000 cells per chamber 24 hours prior to treatment with relaxin. Cells were incubated without or with 10 or 100 ng/ml relaxin for 24 hours. Cells were washed with PBS and fixed with sequential treatment of 4% paraformaldehyde for 10 minutes, ice-cold acetone for 1 minute and ice-cold methanol for 1 minute before air-drying. Slides were then processed as outlined for rat heart sections with the additional use of monoclonal antibodies against vimentin or desmin (Santa Cruz Biotechnology). Cells being analyzed for bFGF expression were stained using the protocol outlined by Vector Laboratories “Vectastain Elite ABC” kit (Vector Labs.), the only deviation from the standard protocol being a 1 hour instead of a 30 minutes primary antibody incubation step. Untreated cells stained diffusely and uniformly for bFGF. Nearly 100% of all cells stained more intensely for bFGF expression following treatment with 10 and 100 ng/ml of relaxin for 24 hours.
substance,measurement,setting,value
"rhRLX: recombinant human relaxin, identical in amino acid sequence to the product of the human H2 gene; A chain of 24, B chain of 29 amino acids",Hydroxyproline Hilar,[1]; 1 mg-air,38.0 ± 2.3 μg/vessel
same,Hydroxyproline MPA,[1]; 1 mg-air,76.4 ± 4.0 μg/vessel
same,Protein Hilar,[1]; 1 mg-air,0.78 ± 0.3 mg/vessel
same,Protein MPA,[1]; 1 mg-air,2.6 ± 0.2 mg/vessel
same,Hydroxyproline Hilar,[1]; 1 mg-hyp,41.0 ± 3.3 μg/vessel
same,Hydroxyproline MPA,[1]; 1 mg-hyp,95.2 ± 3.6 μg/vessel
same,Protein Hilar,[1]; 1 mg-hyp,0.90 ± 0.2 mg/vessel
same,Protein MPA,[1]; 1 mg-hyp,2.3 ± 0.2 mg/vessel
same,Hydroxyproline Hilar,[1]; 5 mg-air,33.5 ± 1.5 μg/vessel
same,Hydroxyproline MPA,[1]; 5 mg-air,75.2 ± 4.0 μg/vessel
same,Protein Hilar,[1]; 5 mg-air,1.1 ± 0.1 mg/vessel
same,Protein MPA,[1]; 5 mg-air,2.5 ± 0.3 mg/vessel
same,Hydroxyproline Hilar,[1]; 5 mg-hyp,37.0 ± 5.0*↑ μg/vessel
same,Hydroxyproline MPA,[1]; 5 mg-hyp,86.6 ± 6.0*↑ μg/vessel
same,Protein Hilar,[1]; 5 mg-hyp,0.75 ± 0.8 mg/vessel
same,Protein MPA,[1]; 5 mg-hyp,2.0 ± 0.4 mg/vessel
same,RV/(LV+S) ratio compared to the veh-hyp group,[1]; hi rhRlx-hyp,significantly reduced
same,mean RVP compared to the veh-hyp group,[1]; high dose,decreased
same,mean RVP compared to the veh-hyp group,[1]; low dose,decreased
same,RV/(LV+S) ratio compared to the veh-hyp group,[1]; low rhRlx-hyp,significantly reduced
same,vessel ingrowth into Matrigel plugs,[2],significantly more vessel ingrowth
same,cells stained more intensely for bFGF expression,[3],~100%
